One series has as its system HepG2. The series can be described thus: Antiproliferative activity against human HepG2 cells at 20 ug/mL after 72 hrs by MTT assay. The series is classed as functional, cell-based. In general terms: Tetrazolium dyes change colour on reduction, which living cells bring about.
Another series relates to Staphylococcus aureus. The series can be described thus: Antimicrobial activity against Methicillin-resistant Staphylococcus aureus ATCC 33592 at 2 mg/ml after 24 hrs by agar well-diffusion method. The format is functional. For orientation: A growth-free zone around the sample is the usual read-out of agar diffusion tests.
The next series concerns A549. The experiment in a line: Antiproliferative activity against human A549 cells at 20 ug/mL after 72 hrs by MTT assay. The format is functional, cell-based.
Series [1] can be described thus: (§1) Antiangiogenic activity against human CD34-positive EPC assessed as inhibition of tube formation after 24 hrs by matrigel based inverted phase contrast microscopic analysis. The series is classed as functional, cell-based.
The subject of another series is EPC. Described as §1. The series is classed as functional, cell-based.
In the next series the test system is MDA-MB-231. The series can be described thus: Antiproliferative activity against human MDA-MB-231 cells at 20 ug/mL after 72 hrs by MTT assay. The series is classed as functional, cell-based.
The nature of series [2]: Cytotoxicity against CD34-positive human EPC at 25 to 50 ug/mL after 24 hrs by LDH release assay. The series is classed as cell-based. (LDH leaks from cells whose membrane has failed.)
The subject of series [3] is Neutrophil. The series can be described thus: Anti-inflammatory activity in fMLP/CB-stimulated human neutrophils assessed as reduction in superoxide generation at 30 ug/mL preincubated for 5 mins followed by cytochalasin B addition for 3 mins and subsequent fMLP-stimulation for 10 mins by ferricytochrome c reduction based spectrophotometric assay. The format is functional, cell-based.

The subject of series [4] is Neutrophil. The series can be described thus: Anti-inflammatory activity in fMLP/CB-stimulated human neutrophils assessed as reduction in elastase release at 30 ug/mL using MeO-Suc-Ala-Ala-Pro-Val-p-nitroanilide as substrate preincubated for 5 mins followed by cytochalasin B addition and subsequent fMLP-stimulation for 10 mins by spectrophotometric assay. The format is functional, cell-based.

As usually defined, the IC50 is the point on the concentration scale where inhibition reaches its midpoint.

Molecules are shown by their SMILES. Values after ≈ are worked out from the molar mass of the structure shown. Active and inactive are the calls of the source. The calls are words filed in the database; no cut-off is given here.

Take `CC[C@@H](C)[C@H]1C=C[C@H]2[C@H](O)[C@@H](CO)C[C@@H](C)[C@@H]2[C@@]1(C)C(=O)CCO`: the result in the series on HepG2, in the series with Staphylococcus aureus, in the series with A549, with MDA-MB-231, with Neutrophil [3] and in the series with Neutrophil [4] was inactive. Besides, the IC50 in series [1] was found to be 34.1 µg/mL (≈ 101 µM). The inhibition entry in the series on EPC was “Dose-dependent effect”. The Activity entry in [2] is “Non-Toxic”.

The values are drawn from ChEMBL document CHEMBL4014292, “Novel 11-norbetaenone isolated from an entomopathogenic fungus Lecanicillium antillanum” (Bioorg Med Chem Lett, 2017).
